Source: patent US8221736B2, “Semiochemical” (Rothamsted Research Limited, priority 1999, dated 2012)
Marks after values point to notes of the source that are not given here.

Experiments:
pollen beetles = experiment: Field-trapping experiments with yellow bowl traps against pollen beetles; assay type: in vivo
Method: Field-trapping experiments were also conducted using cis-jasmone against pollen beetles. Attractive yellow bowl traps, at 1 m height and 10 m spacing, were placed in a Latin square design (one row of the Latin square=one replicate; traps are re-randomized to the next row of the square when a mean of 10 beetles are caught per trap). Catches in an unbaited bowl were compared with those bowls baited with cis-jasmone released at two different rates. Analysis was by ANOVA, on transformed total catch data. The transformation used was x=log10(y+1), where x and y are the transformed and untransformed data, respectively. Transformed means were compared using the LSD (least […] difference) test and transformed back to give the results as set out in Table 1.
P<0.05. Numbers in brackets are the percent reduction in trap catch compared with the unbaited trap.

adult Lepidoptera = conditions: U.S. Pat. No. 5,665,344; cited from earlier work
[1] = system: aphid parasitoid Aphidius ervi; experiment: Wind tunnel responses of A. ervi to V. faba plants exposed to the compound; assay type: in vivo
Method: (§1) A possible role for the compound as an airborne plant signal was investigated using the broad bean, V. faba (cv The Sutton). Plants were kept for 24 hours in clean air or in air incorporating cis-jasmone at 100 μg/l; subsequently, samples of volatiles released by the plants were obtained by entrainment over 4 periods of 48 hours, i.e. up to 192 hours after the end of the treatment. The cis-jasmone itself was undetectable after 48 hours. […] There was also, from some replicates, enhancement of (E,E)-α-farnesene, (−)-β-caryophyllene and (E)-4,8-dimethyl-1,3,7-nonatriene. These compounds have all been implicated in herbivorous insect-induced production and increased parasitoid foraging. The nonatriene can also be produced innately by plants imitating damage for defence against herbivores and which are thus attractive to parasitoids.
Naive female A. ervi were flown in a wind tunnel, as described in J. Chem. Ecol. 16, 381-396 (1996) (Poppy et al.). The parasitoids were released 25 cm downwind (single choice tests) or 40 cm downwind (dual choice test) of the target, which was either a plant or a synthetic compound (10 μg in 10 μl hexane) placed on a 2×1 cm strip of filter paper (Whatman No. 1) surrounded by a ring of green crêpe paper. The proportions of parasitoids responding with an oriented flight to the synthetic chemicals were calculated each day on 3 separate days. These values were then subjected to a logit transformation to normalize the data before being analysed by ANOVA followed by Tukey post-hoc tests. The number of parasitoids orienting upwind to the single plant target were recorded and subjected to a χ^2 contingency test (Pearson method on Genstat—see Genstat 5 Committee. Genstat 5 Reference Manual, Release 3 (Clarendon Press, Oxford, 1993)) to determine whether an orienting response was linked to the type of plant treatment. The numbers orienting to each plant in the dual choice test were analysed by a χ^2 to determine whether one plant was more attractive than the other. […]

[2] = system: lettuce aphid Nasonovia ribis-nigri; experiment: 4-way olfactometer behavioural assay with alate lettuce aphids; assay type: in vivo; conditions: 1 μg in hexane on filter paper, 10 min, P<0.05
Method: Behavioural assays were done in a Perspex™ olfactometer similar to that described in J. Entomol. Scand. 1, 63-73 (1970) (Pettersson), with a weak airstream directed towards the centre from each of 4 side arms. The test compound (1 μg) in hexane (10 μl) was placed on filter paper (Whatman No. 1) at the end of one of the side arms, with hexane alone used as a control in the other arms. One alate virginopara of N. ribis-nigri was placed in the centre of the arena and its movements observed over 10 min. The apparatus, maintained at 24° C., was lit from above by fluorescent tubing and was rotated 90° every 2.5 min to avoid any directional bias. The experiment was replicated 6 times and results analysed by Student's t-test.

[3] = system: hop aphid, Phorodon humuli; experiment: Preliminary field trials, yellow water traps, hop aphid summer morphs; assay type: in vivo; conditions: slow release 2.05 μg/day/trap; P<0.04
[4] = system: broad bean, V. faba (cv The Sutton); experiment: Induction of volatile release by bean plants (air entrainment, GC/GC-MS); assay type: in vivo, Vicia faba; conditions: 24 hour exposure at 100 μg/l in air; from some replicates
Method: as §1
Bean plants, V. faba (cv The Sutton) were grown under standard glasshouse conditions until the 2-4 leaf stage when they were rinsed free of soil and transplanted into baked glass jars containing washed sand, with 3 plants per jar. These were left for 1-2 days to acclimatize. Plants to be treated (three jars of three plants each) were sealed in a 25 l glass tank for 24 hours with either cis-jasmone or methyl jasmonate (2.5 mg) applied to a piece of filter paper (Whatman No. 1) placed on the floor of the tank. […]

CC/C=C\CC1=C(C)CCC1=O [cis-jasmone]
percent reduction in trap catch compared with the unbaited trap (pollen beetles; Analysis A, 2.2 mg/day): (44%) | Back-transformed mean catch per replicate (pollen beetles; Analysis A, 2.2 mg/day, unbaited trap 127.3): 70.9^b | percent reduction in trap catch compared with the unbaited trap (pollen beetles; Analysis A, 25 mg/day): (59%) | Back-transformed mean catch per replicate (pollen beetles; Analysis A, 25 mg/day, unbaited trap 127.3): 51.7^c | percent reduction in trap catch compared with the unbaited trap (pollen beetles; Experiment A, 2.2 mg/day): (21%) | Back-transformed mean catch per replicate (pollen beetles; Experiment A, 2.2 mg/day, unbaited trap 48.3): 38.2^ab | percent reduction in trap catch compared with the unbaited trap (pollen beetles; Experiment A, 25 mg/day): (35%) | Back-transformed mean catch per replicate (pollen beetles; Experiment A, 25 mg/day, unbaited trap 48.3): 31.4^b | percent reduction in trap catch compared with the unbaited trap (pollen beetles; Experiment B, 2.2 mg/day): (60%) | Back-transformed mean catch per replicate (pollen beetles; Experiment B, 2.2 mg/day, unbaited trap 333.1): 130.7^bc | percent reduction in trap catch compared with the unbaited trap (pollen beetles; Experiment B, 25 mg/day): (75%) | Back-transformed mean catch per replicate (pollen beetles; Experiment B, 25 mg/day, unbaited trap 333.1): 84.6^c | behavioural effect on adult Lepidoptera (adult Lepidoptera): attract adult Lepidoptera | % showing oriented flight ([1]; V. faba plants 48 hr after exposure (100 μg/l in air), single choice test, hexane control 20, P<0.01): 44% | parasitoids oriented towards the treated plant compared to the control ([1]; dual choice test of treated or untreated plants): over 3 times | % oriented to treated plant ([1]; dual choice test, treated plant versus control plant, 48 hr after exposure (100 μg/l in air), control plant 10, P<0.05): 32% | mean number of entries into the treated arm ([2]; 6 replicates, control arms 4.3±0.58): 2.0±0.58 | mean time spent in the treated arm ([2]; control arms 2.1±0.36 minutes): 0.5 ± 0.16 min | reduction of catches in water traps with visual (yellow) attractancy [3]: 40% | release of (E,E)-α-farnesene, (−)-β-caryophyllene and (E)-4,8-dimethyl-1,3,7-nonatriene [4]: enhancement
